Test results: PubChem BioAssay (NCI)
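Step 1: Grow cells in 96-well plates. Step 2: Expose to compound for 48 hours at 5 concentrations. Step 3: Interpolate endpoints linearly; if unreached, use highest concentration. GI50 = concentration required for 50% inhibition of growth. Definition used: TGI = concentration required for complete inhibition of growth.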

Columns and labels:
Experiment in all cases: NCI anticancer screen, dose series, 48 h
RXF 393 renal = tested on: RXF 393 renal
SR leukemia = tested on: SR leukemia
UACC-257 melanoma = tested on: UACC-257 melanoma
SNB-19 CNS = tested on: SNB-19 CNS
RPMI-8226 leukemia = tested on: RPMI-8226 leukemia
SK-MEL-2 melanoma = tested on: SK-MEL-2 melanoma
MALME-3M melanoma = tested on: MALME-3M melanoma
CCRF-CEM leukemia = tested on: CCRF-CEM leukemia
MDA-MB-231 breast = tested on: MDA-MB-231 breast
PC-3 prostate = tested on: PC-3 prostate
HL-60(TB) leukemia = tested on: HL-60(TB) leukemia
UACC-62 melanoma = tested on: UACC-62 melanoma
OVCAR-4 ovarian = tested on: OVCAR-4 ovarian
SK-OV-3 ovarian = tested on: SK-OV-3 ovarian
MCF7 breast = tested on: MCF7 breast
COLO 205 colon = tested on: COLO 205 colon
HOP-62 NSCLC = tested on: HOP-62 NSCLC
ACHN renal = tested on: ACHN renal
HCC-2998 colon = tested on: HCC-2998 colon
OVCAR-3 ovarian = tested on: OVCAR-3 ovarian
HCT-116 colon = tested on: HCT-116 colon
UO-31 renal = tested on: UO-31 renal
IGROV1 ovarian = tested on: IGROV1 ovarian
CAKI-1 renal = tested on: CAKI-1 renal
HS 578T breast = tested on: HS 578T breast
SK-MEL-5 melanoma = tested on: SK-MEL-5 melanoma
BT-549 breast = tested on: BT-549 breast
NCI-H460 lung = tested on: NCI-H460 lung
SF-539 CNS = tested on: SF-539 CNS
DU-145 prostate = tested on: DU-145 prostate

For CN(CCO)c1oc(-c2ccccc2)nc1[P+](c1ccccc1)(c1ccccc1)c1ccccc1, which TGI (RXF 393 renal) is on record?
The TGI was 9.64 µM.

And the GI50 (SR leukemia)?
Its GI50 is 1.64 µM.

And the TGI (SR leukemia)?
Its TGI is 12.4 µM.

And the GI50 (UACC-257 melanoma)?
The GI50 was 1.95 µM.

And the TGI (UACC-257 melanoma)?
Its TGI is 9.63 µM.

What about the GI50 (SNB-19 CNS) of the same compound?
The GI50 was 2.01 µM.

What about the TGI (SNB-19 CNS) of the same compound?
Its TGI is 7.95 µM.

What about the GI50 (RPMI-8226 leukemia) of the same compound?
The GI50 was 0.393 µM.

What about the TGI (RPMI-8226 leukemia) of the same compound?
Its TGI is 4.03 µM.

What about the GI50 (SK-MEL-2 melanoma) of the same compound?
The GI50 was 1.96 µM.

And the TGI (SK-MEL-2 melanoma)?
The TGI was 5.43 µM.

And the GI50 (MALME-3M melanoma)?
Its GI50 is 1.6 µM.

What about the TGI (MALME-3M melanoma) of the same compound?
The TGI was 9.14 µM.

What about the GI50 (CCRF-CEM leukemia) of the same compound?
Its GI50 is 2.39 µM.

What about the TGI (CCRF-CEM leukemia) of the same compound?
The TGI was 12.2 µM.

And the GI50 (MDA-MB-231 breast)?
Its GI50 is 1.36 µM.

What about the TGI (MDA-MB-231 breast) of the same compound?
Its TGI is 4.18 µM.

And the GI50 (PC-3 prostate)?
Its GI50 is 1.75 µM.

What about the TGI (PC-3 prostate) of the same compound?
The TGI was 10.4 µM.

What about the GI50 (HL-60(TB) leukemia) of the same compound?
Its GI50 is 0.535 µM.

And the TGI (HL-60(TB) leukemia)?
Its TGI is 2.73 µM.

And the GI50 (UACC-62 melanoma)?
The GI50 was 1.23 µM.

What about the TGI (UACC-62 melanoma) of the same compound?
The TGI was 5.97 µM.

What about the GI50 (OVCAR-4 ovarian) of the same compound?
Its GI50 is 2.79 µM.

What about the TGI (OVCAR-4 ovarian) of the same compound?
Its TGI is 27.1 µM.

And the GI50 (SK-OV-3 ovarian)?
The GI50 was 2.98 µM.

And the TGI (SK-OV-3 ovarian)?
Its TGI is 8.21 µM.

What about the GI50 (MCF7 breast) of the same compound?
The GI50 was 1.21 µM.

And the TGI (MCF7 breast)?
Its TGI is 6.84 µM.

And the GI50 (COLO 205 colon)?
The GI50 was 1.46 µM.

What about the TGI (COLO 205 colon) of the same compound?
The TGI was 3.28 µM.

What about the GI50 (HOP-62 NSCLC) of the same compound?
The GI50 was 3.49 µM.

What about the TGI (HOP-62 NSCLC) of the same compound?
The TGI was 13 µM.

What about the GI50 (ACHN renal) of the same compound?
The GI50 was 8.36 µM.

What about the TGI (ACHN renal) of the same compound?
The TGI was 41.6 µM.

And the GI50 (HCC-2998 colon)?
The GI50 was 1.82 µM.

And the TGI (HCC-2998 colon)?
Its TGI is 12.4 µM.

What about the GI50 (OVCAR-3 ovarian) of the same compound?
The GI50 was 1.08 µM.

And the TGI (OVCAR-3 ovarian)?
The TGI was 12.6 µM.

And the GI50 (HCT-116 colon)?
Its GI50 is 2.84 µM.

What about the TGI (HCT-116 colon) of the same compound?
Its TGI is 12 µM.

What about the GI50 (UO-31 renal) of the same compound?
Its GI50 is 19 µM.

What about the TGI (UO-31 renal) of the same compound?
Its TGI is 54.3 µM.

What about the GI50 (IGROV1 ovarian) of the same compound?
The GI50 was 0.802 µM.

And the TGI (IGROV1 ovarian)?
Its TGI is 7.45 µM.

And the GI50 (CAKI-1 renal)?
The GI50 was 4 µM.

And the TGI (CAKI-1 renal)?
Its TGI is 24.9 µM.

And the GI50 (HS 578T breast)?
Its GI50 is 2.39 µM.

And the TGI (HS 578T breast)?
The TGI was 9.08 µM.

And the GI50 (SK-MEL-5 melanoma)?
Its GI50 is 1.15 µM.

What about the TGI (SK-MEL-5 melanoma) of the same compound?
The TGI was 2.52 µM.

What about the GI50 (BT-549 breast) of the same compound?
The GI50 was 1.78 µM.

What about the TGI (BT-549 breast) of the same compound?
Its TGI is 7.08 µM.

What about the GI50 (NCI-H460 lung) of the same compound?
Its GI50 is 2.74 µM.

What about the TGI (NCI-H460 lung) of the same compound?
The TGI was 12.4 µM.

And the GI50 (SF-539 CNS)?
Its GI50 is 2.74 µM.

And the TGI (SF-539 CNS)?
The TGI was 12.1 µM.

And the GI50 (DU-145 prostate)?
The GI50 was 3.26 µM.

And the TGI (DU-145 prostate)?
Its TGI is 13.7 µM.
